Assay [1] has as its target Cyclin-dependent kinase 1/cyclin B (Homo sapiens, UniProt P06493). In words: Inhibitory concentration against human Cyclin B-cyclin-dependent kinase 1 was observed. Type of assay: protein-complex assay.
Assay [2] deals with Cyclin-dependent kinase 4/cyclin D1 (Homo sapiens, UniProt P11802). In words: Inhibitory concentration against human Cyclin D1-cyclin-dependent kinase 4 was observed. Type of assay: protein-complex assay.
Assay [3] concerns the target Cyclin-dependent kinase 2/cyclin E (Homo sapiens, UniProt P24941). In words: Inhibitory concentration against human Cyclin E-cyclin-dependent kinase 2 was observed. Type of assay: protein-complex assay.
In the next assay the test system is HCT-116. In words: Inhibitory concentration against proliferation of human HCT116 cells was observed by MTT assay. Type of assay: functional, cell-based. For orientation: Formazan colour is commonly taken as a measure of viable cells.

Molecules are shown by their SMILES. pIC50: −log10 of the molar value.

Sequence of Cyclin-dependent kinase 4/cyclin D1 (P11802 whole entry): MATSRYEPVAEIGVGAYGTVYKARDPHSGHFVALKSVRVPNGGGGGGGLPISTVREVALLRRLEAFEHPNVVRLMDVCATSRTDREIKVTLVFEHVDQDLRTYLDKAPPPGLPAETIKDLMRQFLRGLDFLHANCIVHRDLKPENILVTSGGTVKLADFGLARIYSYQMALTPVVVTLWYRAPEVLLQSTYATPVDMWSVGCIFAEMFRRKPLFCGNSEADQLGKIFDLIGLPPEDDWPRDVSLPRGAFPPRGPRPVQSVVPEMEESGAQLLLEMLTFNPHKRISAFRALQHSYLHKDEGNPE
Sequence of Cyclin-dependent kinase 4/cyclin D1 (P24385 whole entry, further chain): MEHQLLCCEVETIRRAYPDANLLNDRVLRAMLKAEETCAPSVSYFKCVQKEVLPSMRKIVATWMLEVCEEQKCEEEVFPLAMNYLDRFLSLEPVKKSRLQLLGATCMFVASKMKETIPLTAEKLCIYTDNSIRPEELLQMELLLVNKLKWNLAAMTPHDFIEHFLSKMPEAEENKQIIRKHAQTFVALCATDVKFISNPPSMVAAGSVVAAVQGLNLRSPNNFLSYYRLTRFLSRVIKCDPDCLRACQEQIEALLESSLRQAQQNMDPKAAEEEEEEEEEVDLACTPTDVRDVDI

For orientation: pIC50 means −log10 of the IC50, conventionally taken in molar units. High values mean a low IC50, low ones a high IC50. In the case of `CN(C)S(=O)(=O)c1ccc(Nc2cn3cc(C(=O)c4c(Cl)cccc4Cl)ccc3n2)cc1`, the pIC50 in assay [1] was 6.01; in assay [2] it was 5.67; in assay [3], 5.81.
Taken in the same sequence, the figures for `CN(C)S(=O)(=O)c1cccc(Nc2cn3cc(C(=O)c4c(Cl)cccc4Cl)ccc3n2)c1` were 5.03, < 4.70 and 4.92.
The matching figures for `CS(=O)(=O)c1ccc(Nc2cn3cc(C(=O)c4c(Cl)cccc4Cl)ccc3n2)cc1`: 6.28, 5.91 and 5.92.
Taken in the same sequence, the figures for `O=C(NS(=O)(=O)c1ccc(Nc2cn3cc(C(=O)c4c(Cl)cccc4Cl)ccc3n2)cc1)c1ccccc1` were 6.60, 5.42 and 6.17.
With `O=C(O)c1ccc(Nc2cn3cc(C(=O)c4c(Cl)cccc4Cl)ccc3n2)cc1`, the pIC50 in assay [1] was 6.35; in assay [2], 5.30; in assay [3], 6.13.
Taken in the same sequence, the figures for `N=C(N)NS(=O)(=O)c1ccc(Nc2cn3cc(C(=O)c4c(Cl)cccc4Cl)ccc3n2)cc1` were 6.80, 5.89 and 6.60.
On to `CS(=O)(=O)c1cccc(Nc2cn3cc(C(=O)c4c(Cl)cccc4Cl)ccc3n2)c1`, for which the pIC50 in assay [1] was 5.77; in assay [2], 5.50; in assay [3] it was 5.54.
The matching figures for `NC(=O)c1cccc(Nc2cn3cc(C(=O)c4c(Cl)cccc4Cl)ccc3n2)c1`: 5.72, 5.40 and 5.57.
Take `NS(=O)(=O)c1ccc(Nc2cn3cc(C(=O)c4c(Cl)cccc4Cl)ccc3n2)cc1`: the pIC50 in assay [1] was 6.41; in assay [2] it was 5.87; with HCT-116 it was 5.26.
Consider `CSc1ccc(Nc2cn3cc(C(=O)c4c(Cl)cccc4Cl)ccc3n2)cc1`, for which the pIC50 in assay [1] is 5.52; in assay [2], 5.13; in assay [3] it was 4.86.
For the compound `O=C(c1ccc2nc(Nc3ccncc3)cn2c1)c1c(Cl)cccc1Cl`, the pIC50 in assay [1], in assay [2] and in assay [3] was < 4.70 throughout.
For the compound `O=C(c1ccc2nc(Nc3ccc(Oc4ccccc4)cc3)cn2c1)c1c(Cl)cccc1Cl`, the pIC50 in assay [1], in assay [2] and in assay [3] was < 4.70 each time.
For the compound `CSc1cccc(Nc2cn3cc(C(=O)c4c(Cl)cccc4Cl)ccc3n2)c1`, the pIC50 in assay [1] is 5.32; in assay [2], 4.92; in assay [3], 4.75.
The matching figures for `NC(=O)c1ccc(Nc2cn3cc(C(=O)c4c(Cl)cccc4Cl)ccc3n2)cc1`: 6.24, 5.79 and 5.79.
